What was measured:
human CCR5 = target: T1, human CCR5 (Homo sapiens, UniProt P51681); assay: Evaluation of test compounds based on CCR5 antagonistic activity: inhibition of [125I]-RANTES binding to CCR5/CHO cells; conditions: Test Compound 1 μM, 100 pM [125I]-RANTES, room temperature for 40 minutes, read-out: Inhibitory Rate (%)
T1 construct: expressed in transfected cells
Experimental: Cloning of CCR5 gene was carried out by a PCR method from human spleen cDNA. With using 0.5 ng of spleen cDNA (Toyobo, QUICK-Clone cDNA) as template, PCR was performed in DNA Thermal Cycler 480 (Perkin-Elmer) (reaction conditions: 30 cycles of 95° C. for 1 minute, 60° C. for 1 minute, and 75° C. for 5 minutes) by adding each 25 pmol of primers of a primer set, • SEQ ID NO.: 1 described in Test Example (1) of WO 99/32100 [length of sequence: 34; type of sequence: nucleic acid; strandedness: single; topology: straight; kind of sequence: other nucleic acid synthetic DNA, and • SEQ ID NO.: 2 described in Test Example (1) of WO 99/32100 [length of sequence: 34; type of sequence: nucleic acid; strandedness: single; topology: straight; kind of sequence: other nucleic acid synthetic DNA which were designed referring to nucleotide sequence of CCR5 gene reported by Samson et. al. (Biochemistry, 35(11), 3362-3367 (1996)) and by using TaKaRa EX Taq (Takara Shuzo). The resultant PCR product was subjected to agarose gel electrophoresis to collect about 1.0 kb DNA fragment, which was subjected to Original TA Cloning Kit (Funakoshi) to carry out cloning of CCR5 gene. (2) Preparation of Plasmid for Expression of Human CCR5
The plasmid obtained in the above (1) was digested with restriction enzymes XbaI (Takara Shuzo) and BamHI (Takara Shuzo) and subjected to agarose gel electrophoresis to collect about 1.0 kb DNA fragment.
The DNA fragment was mixed with plasmid pcDNA3.1 (Funakoshi) for expression in animal cells, said plasmid being digested with XbaI and BamHI, and they were ligated with DNA Ligation Kit Ver.2 (Takara Shuzo). The resulting plasmid was subjected to transformation of competent cell of E. coli JM109 (Takara Shuzo) to obtain plasmid pCKR5.
CHO-K1 cells were grown in 750 ml of tissue culture flask (Becton Dickinson) using Ham's F12 medium (Nihon Pharmaceutical) containing 10% fetal calf serum (Life Tech Oriental) and taken off with 0.5 g/L trypsin-0.2 g/L EDTA (Life Tech Oriental). The cells were washed with PBS (Life Tech Oriental), centrifuged (1000 rpm, 5 minutes), and suspended in PBS. With using Gene Pulser (Bio-Rad Laboratories), DNA was introduced into the cells under the conditions shown below. That is, to the cuvette of 0.4 cm gap were added 8×10^6 cells and 10 μg of plasmid pCKR5 for expression of human CCR5, and electroporation was carried out under 0.25 kV of voltage and 960 μF of capacitance. The cells were transferred into Ham's F12 medium containing 10% fetal calf serum, and cultivated for 24 hours. The cells were again taken off and centrifuged, and suspended in Ham's F12 medium containing 10% fetal calf serum and 500 μg/ml of geneticin (Life Tech Oriental). The suspension was diluted to give 10^4 cells/ml of the suspension, which was inoculated on a 96 well plate (Becton Dickinson) to give geneticin resistant cells.
The resulting geneticin resistant cells were cultivated in 96 well plate (Becton Dickinson), and cells expressing CCR5 were selected from the geneticin resistant cells. That is, in assay buffer (Ham's F12 medium containing 0.5% BSA and 20 mM HEPES (Wako Pure Chemical, pH7.2)) to which was added 200 pM of [^125I]-RANTES (Amersham) as a ligand, a binding reaction was carried out at room temperature for 46 minutes, and the buffer was washed with cooled PBS. To the buffer was added 50 μl/well of 1M NaOH, and the mixture was stirred. Radioactivity was determined with a y-counter to select CCR5/CHO cells which specifically bind to the ligand.
The CCR5/CHO cells were inoculated on 96 well microplate (5×10^4 cells/well) and cultivated for 24 hours. The medium was removed by means of suction, and to each well was added an assay buffer containing Test Compound (1 μM) and then 100 pM of [^125I]-RANTES (Amersham) as a ligand. A binding assay was carried out at room temperature for 40 minutes, and an assay buffer was removed by means of suction. […]

HIV-1 BA-L = assay: Inhibitory effect on HIV-1 infection to MAGI-CCR5 cell (β-galactosidase blue cell count); type: cell-based; conditions: 100 μl medium containing 1.6 μM of Test Compound + 100 μl medium containing 300 PFU of HIV-1 BA-L; MAGI-CCR5 cells; 37° C. for 2 days
Experimental: (5) Inhibitory Effect on HIV-1 Infection to MAGI-CCR5 Cell
The plasmid where β-galactosidase gene was ligated downstream of HIV-1 LTR was introduced into CD4 positive HeLa cell, to which human CCR5 was further introduced to obtain transformant MAGI-CCR5.
By using said transformant MAGI-CCR5, a degree of HIV-1 infection was calculated using β-galactosidase activity (blue color due to decomposition of 5-bromo-4-chloro-3-indolyl-β-D-galactopyranoside) as an index. Specifically, MAGI-CCR5 cells were suspended in DMEM medium containing 10% serum to prepare 5×10^4 cells/ml suspension. To each well of 96 well plate was inoculated 200 μl of the suspension, and the cells were cultivated at 37° C. overnight. The medium was removed by means of suction, and to the residue was added 100 μl of the above medium containing 1.6 μM of Test Compound and 100 μl of the above medium containing 300 PFU of HIV-1 BA-L cells. The cells were cultivated at 37° C. for 2 days. The medium was removed by means of suction. To the residue was added 200 μl of a cell fixative (PBS containing 1% formaldehyde and 0.2% glutaraldehyde), and the mixture was allowed to stand at room temperature for 5 minutes and washed twice with PBS. To the mixture was added 100 μl of staining solution (PBS containing […] and 0.4 mg/ml X-gal), and the mixture was allowed to stand at 37° C. for 50 minutes and washed twice with PBS. The number of blue cells was counted by a microscope and defined as the number of cells infected with HIV-1. According to this method, inhibition rate of HIV-1 infection was determined.

T1 sequence (P51681 whole entry): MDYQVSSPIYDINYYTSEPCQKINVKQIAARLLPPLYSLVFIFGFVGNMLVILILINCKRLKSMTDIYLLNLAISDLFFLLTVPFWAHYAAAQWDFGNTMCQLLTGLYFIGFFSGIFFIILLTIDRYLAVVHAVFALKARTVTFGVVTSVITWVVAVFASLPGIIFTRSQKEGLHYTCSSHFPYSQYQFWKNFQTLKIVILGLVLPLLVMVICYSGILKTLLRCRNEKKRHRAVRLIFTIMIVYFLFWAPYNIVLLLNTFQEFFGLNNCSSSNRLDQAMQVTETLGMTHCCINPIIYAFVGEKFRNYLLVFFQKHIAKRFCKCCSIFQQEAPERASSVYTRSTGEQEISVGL

| inhibition at 1 µM (human CCR5) [%] | melting point [°C] | SMILES | Inhibitation Rate (%) (HIV-1 BA-L) |
| --- | --- | --- | --- |
| 93 | 192 to 194 | CCOCCOc1ccc(-c2ccc3c(c2)C=C(C(=O)Nc2ccc(CN(C)C4CCOCC4)cc2)CCN3C=O)cc1 [Compound 1, 7-[4-(2-ethoxyethoxy)phenyl]-1-formyl-N-[4-[[N-methyl-N-(tetrahydro-2H-pyran-4-yl)amino]methyl]phenyl]-2,3-dihydro-1H-1-benzazepine-4-carboxamide] | 85 |
| 96 | 187 to 189 | CC(C)OCCOc1ccc(-c2ccc3c(c2)C=C(C(=O)Nc2ccc(CN(C)C4CCOCC4)cc2)CCN3C=O)cc1 [Compound 14, 1-formyl-N-[4-[[N-methyl-N-(tetrahydro-2H-pyran-4-yl)amino]methyl]phenyl]-7-[4-(2-propoxy)ethoxyphenyl]-2,3-dihydro-1H-1-benzazepine-4-carboxamide] | 91 |
| 96 | 114.5 to 116.5 | CCOCCOc1ccc(-c2ccc3c(c2)C=C(C(=O)Nc2ccc(CN(C)C4CCOCC4)cc2)CCN3CC)cc1 [Compound 16, 7-[4-(2-ethoxyethoxy)phenyl]-1-ethyl-N-[4-[[N-methyl-N-(tetrahydro-2H-pyran-4-yl)amino]methyl]phenyl]-2,3-dihydro-1H-1-benzazepine-4-carboxamide] | 94 |
| 99 | 106 to 108 | CCCOCCOc1ccc(-c2ccc3c(c2)C=C(C(=O)Nc2ccc(CN(C)C4CCOCC4)cc2)CCN3CC)cc1 [Compound 17, 1-ethyl-N-[4-[[N-methyl-N-(tetrahydro-2H-pyran-4-yl)amino]methyl]phenyl]-7-[4-(2-propoxyethoxy)phenyl)-2,3-dihydro-1H-1-benzazepine-4-carboxamide] | 94 |

From patent publication US6936602B1, “Benzazepine derivatives, process for the preparation of the same and uses thereof” (Takeda Chemical Industries, Ltd., priority 1999, dated 2005)
